This note sets out measurements from publication PMC10333884, “Large‐scale phosphomimetic screening identifies phospho‐modulated motif‐based protein interactions” (Molecular Systems Biology, 2023).

Holding throughout (assay type): binding
For assay [1], the target named is T1, Clathrin NTD (Homo sapiens, UniProt Q00610).
T1 construct: GST (cleaved yes); made in house; host or cells: Escherichia coli BL21-Gold(DE3)
T1 sequence (Q00610 1-364): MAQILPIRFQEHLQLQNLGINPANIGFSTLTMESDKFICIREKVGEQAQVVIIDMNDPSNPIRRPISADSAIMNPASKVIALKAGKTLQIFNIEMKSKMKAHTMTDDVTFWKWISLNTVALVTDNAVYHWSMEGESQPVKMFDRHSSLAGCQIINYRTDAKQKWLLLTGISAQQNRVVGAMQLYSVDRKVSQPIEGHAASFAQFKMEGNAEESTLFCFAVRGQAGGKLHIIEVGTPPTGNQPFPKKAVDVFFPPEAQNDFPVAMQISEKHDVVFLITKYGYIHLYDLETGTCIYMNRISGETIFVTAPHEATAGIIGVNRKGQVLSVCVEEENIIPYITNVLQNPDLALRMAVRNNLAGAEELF
Description: FP displacement assay, clathrin NTD. The protocol: (§1) FP experiments were performed as described previously (Kliche et al, [2021]). Shortly, in order to monitor the binding event, FITC‐labelled peptides were used (excitation 495 nm, emission: 535 nm) and the FP signal was recorded in mP on a SpectraMax iD5 Multi‐Mode Microplate Reader (Molecular Devices) by measuring the emitted light in two angels. The measurements were performed at room temperature and prepared in nonbinding black half area 96‐well microplates (Corning®; 50 μl/well). For measuring direct binding, that is saturation curves, a 1:1 dilution series of protein domain (25 μl/well) was generated in 50 mM sodium phosphate buffer pH 7.4 and the measurement performed with 5 nM FITC‐labelled peptide (25 μl/well). The buffer‐corrected values were subsequently plotted with PRISM and fitted to the quadratic equation (Gianni et al, [2005]).
(§2) The 1:1 dilution series in this experiment was performed with the unlabelled peptide in 50 mM sodium phosphate buffer pH 7.4, so that each well‐contained unlabelled peptide (25 μl) at a certain concentration and pre‐formed complex (25 μl). The KD values of this indirectly monitored binding event were calculated as described previously (Nikolovska‐Coleska et al, [2004]). All measurements were at least in technical triplicates as well as biological duplicates when indicated. An amplitude shift between repeat measurements in the displacement experiments was occasionally observed due to variations in the protein preparations. If that was the case, the “active” protein concentration was back‐calculated according to the quadratic equation from the saturation curves performed in parallel. By comparing the active protein concentrations in the complex between different protein preparations, the amplitude was normalised.

In assay [2] the target is T1, Clathrin NTD. Description: ITC, clathrin NTD. The settings on record: ITC (iTC200), 50 mM sodium phosphate pH 7.4, 1 mM DTT; average of the runs, at least technical triplicates. For orientation: In ITC the heat of successive injections is recorded.
Assay [3] has as its target T2, 14-3-3 theta (Homo sapiens, UniProt P27348).
T2 construct: GST (cleaved yes); made in house; host or cells: Escherichia coli BL21-Gold(DE3)
T2 sequence (P27348 1-245): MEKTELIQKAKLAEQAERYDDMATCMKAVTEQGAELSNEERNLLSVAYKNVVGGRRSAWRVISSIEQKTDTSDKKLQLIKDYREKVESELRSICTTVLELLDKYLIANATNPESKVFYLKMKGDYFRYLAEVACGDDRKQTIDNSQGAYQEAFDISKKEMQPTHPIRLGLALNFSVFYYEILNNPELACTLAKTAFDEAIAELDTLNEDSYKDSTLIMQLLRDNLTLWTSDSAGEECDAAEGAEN
The experiment in a line: FP displacement assay, 14-3-3 theta. Particulars: probe FITC-2BTP; technical triplicates. How it is done:
as §1, §2

The target of assay [4] is T3, AP2 μ2 (Homo sapiens, UniProt Q96CW1).
T3 construct: AP2_Mu__Q96CW1_160_435; GST (cleaved yes); made in house; host or cells: Escherichia coli BL21-Gold(DE3)
T3 sequence (Q96CW1 160-435): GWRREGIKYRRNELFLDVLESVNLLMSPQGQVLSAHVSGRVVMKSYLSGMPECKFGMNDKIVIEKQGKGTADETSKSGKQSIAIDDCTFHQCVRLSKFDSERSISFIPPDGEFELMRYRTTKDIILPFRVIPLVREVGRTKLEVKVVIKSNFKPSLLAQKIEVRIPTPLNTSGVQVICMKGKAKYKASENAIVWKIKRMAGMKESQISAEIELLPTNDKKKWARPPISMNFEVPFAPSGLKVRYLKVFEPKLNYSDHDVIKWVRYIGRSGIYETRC
Description: FP displacement assay, AP2 μ2. The settings on record: probe FITC-ATG9A 5 nM, 50 mM sodium phosphate pH 7.4, room temperature, at least three technical replicates, read-out: KD values ± SEM. The protocol: as §1, §2

“And” between values parts separate entries of the source, which are not always exact repeats. Identical values can stand only once. Non-standard residues stand in square brackets, D forms with d. Residues, ends and D or L forms follow the SMILES beside them. pS = N[C@@H](COP(=O)(O)O)C(=O)O

As usually defined, the Kd is the constant that tells how readily two partners part at equilibrium. With `CC[C@H](C)[C@H](NC(=O)[C@H](CC(C)C)NC(=O)[C@H](CC(N)=O)NC(=O)CNC(=O)CNC(=O)[C@H](Cc1ccc(O)cc1)NC(C)=O)C(=O)N[C@H](C(=O)N[C@@H](Cc1ccccc1)C(=O)N[C@@H](CCC(=O)O)C(=O)N1CCC[C@H]1C(=O)N[C@@H](CC(C)C)C(=O)N[C@@H](CCC(N)=O)C(=O)N1CCC[C@H]1C(=O)NCC(=O)N[C@@H](CCC(=O)O)C(=O)N[C@@H](Cc1ccccc1)C(N)=O)[C@@H](C)O` [HURP832–846 E] (Ac-YGGNLITFEPLQPGEF-NH2), the values for the Kd in assay [1] and in assay [2] were 23 ± 2 µM and 22 µM, respectively. With “H3COC-DMYALTRGSS(E/pS)LADQRK-NH2 [pS375 TOM1_366–382, phosphorylated TOM1 366-382 peptide]”, the “binding in FP displacement experiment” value in assay [3] was “weak affinity”. Turning to `CC(=O)N[C@@H](Cc1ccccc1)C(=O)N1CCC[C@H]1C(=O)N[C@@H](CO)C(=O)N[C@@H](COP(=O)(O)O)C(=O)N[C@@H](Cc1ccc(O)cc1)C(=O)N[C@H](C(=O)N[C@@H](CCCCN)C(=O)N[C@@H](CC(C)C)C(=O)N[C@@H](CC(C)C)C(=O)N[C@@H](CCC(=O)O)C(=O)N[C@@H](CCC(=O)O)C(=O)N[C@@H](CC(N)=O)C(=O)N[C@@H](CCC(=O)O)C(=O)N[C@H](C(=O)N[C@@H](CCC(=O)O)C(=O)N[C@@H](C)C(N)=O)[C@@H](C)O)[C@@H](C)O` [BAIAPL1_392–407 pS] (Ac-FPS[pS]YTKLLEENETEA-NH2), the Kd in assay [4] came out at 0.93 ± 0.01 µM. Turning to `CC[C@H](C)[C@H](NC(=O)[C@H](CC(C)C)NC(=O)[C@H](CC(N)=O)NC(=O)CNC(=O)CNC(=O)[C@H](Cc1ccc(O)cc1)NC(C)=O)C(=O)N[C@H](C(=O)N[C@@H](Cc1ccccc1)C(=O)N[C@@H](CO)C(=O)N1CCC[C@H]1C(=O)N[C@@H](CC(C)C)C(=O)N[C@@H](CCC(N)=O)C(=O)N1CCC[C@H]1C(=O)NCC(=O)N[C@@H](CCC(=O)O)C(=O)N[C@@H](Cc1ccccc1)C(N)=O)[C@@H](C)O` [HURP832–846 wt] (Ac-YGGNLITFSPLQPGEF-NH2), the figures for the Kd in assay [1] and in assay [2] were 134 ± 16 µM and 266 µM, respectively.

Consider `CC(=O)N[C@@H](Cc1ccccc1)C(=O)N1CCC[C@H]1C(=O)N[C@@H](CO)C(=O)N[C@@H](CO)C(=O)N[C@@H](Cc1ccc(O)cc1)C(=O)N[C@H](C(=O)N[C@@H](CCCCN)C(=O)N[C@@H](CC(C)C)C(=O)N[C@@H](CC(C)C)C(=O)N[C@@H](CCC(=O)O)C(=O)N[C@@H](CCC(=O)O)C(=O)N[C@@H](CC(N)=O)C(=O)N[C@@H](CCC(=O)O)C(=O)N[C@H](C(=O)N[C@@H](CCC(=O)O)C(=O)N[C@@H](C)C(N)=O)[C@@H](C)O)[C@@H](C)O` [BAIAPL1_392–407 wt] (Ac-FPSSYTKLLEENETEA-NH2), for which, in assay [4], the Kd came out at 1.29 ± 0.06 µM. For the molecule “H3COC-DMYALTRGSS(E/pS)LADQRK-NH2 [S375 TOM1_366–382, wild-type TOM1 366-382 (F368Y) peptide]”, the “binding in FP displacement experiment” value in assay [3] is “no binding”.

On to `CC[C@H](C)[C@H](NC(=O)[C@@H](NC(=O)[C@@H]1CCCN1C(=O)[C@H](COP(=O)(O)O)NC(=O)[C@H](CO)NC(=O)[C@H](C)NC(=O)[C@@H]1CCCN1C(=O)[C@H](CCSC)NC(=O)[C@@H]1CCCN1C(=O)[C@H](CCC(N)=O)NC(=O)[C@H](Cc1ccc(O)cc1)NC(=O)[C@@H]1CCCN1C(=O)[C@@H](NC(=O)[C@@H](NC(=O)[C@H](CCSC)NC(C)=O)[C@@H](C)O)[C@@H](C)CC)C(C)C)C(=O)N[C@@H](CS)C(N)=O` [PCBP1_179–194 pS] (Ac-MTIPYQPMPAS[pS]PVIC-NH2), for which the Kd in assay [4] was 0.67 ± 0.04 µM. Consider “H3COC-DMYALTRGSS(E/pS)LADQRK-NH2 [S375E TOM1_366–382, phosphomimetic TOM1 366-382 peptide]”, for which the “binding in FP displacement experiment” value in assay [3] was “no binding”. One may read the IC50 as the concentration that inhibits the measured activity by half. As to `CC[C@H](C)[C@H](NC(=O)[C@H](CC(C)C)NC(=O)[C@H](CC(N)=O)NC(=O)CNC(=O)CNC(=O)[C@H](Cc1ccc(O)cc1)NC(C)=O)C(=O)N[C@H](C(=O)N[C@@H](Cc1ccccc1)C(=O)N[C@@H](COP(=O)(O)O)C(=O)N1CCC[C@H]1C(=O)N[C@@H](CC(C)C)C(=O)N[C@@H](CCC(N)=O)C(=O)N1CCC[C@H]1C(=O)NCC(=O)N[C@@H](CCC(=O)O)C(=O)N[C@@H](Cc1ccccc1)C(N)=O)[C@@H](C)O` [HURP832–846 pS] (Ac-YGGNLITF[pS]PLQPGEF-NH2), the Kd in assay [1] was less than 3 µM; in assay [2], 5 µM and 3 µM. Besides, the IC50 in assay [1] (Fig 6A, clathrin NTD, FP displacement, two to three technical replicates per protein preparation, 2 independent preparations, read-out: IC50 values of displacement curves, with SEM) was determined as 11 ± 4 µM.
